According to patent US20120040906A1, “PROTEIN TARGETS IN DISEASE” (NATIONAL UNIVERSITY OF IRELAND, GALWAY, priority 2009, published 2012):

Experiments:
H9c2 cardiomyocytes [1] = assay: microarray analysis of microRNA expression during ER stress; type: cell-based, Rat; settings: Tg 1 μM or Tm 1 μg/ml, 24 hours, untreated control = 1.000
Protocol: (§1) Expression profiling of microRNAs during the conditions of Endoplasmic Reticulum (ER) stress in cardiomyocytes was performed. ER stress was induced by treatment with either thapsigargin, an inhibitor of the Sacroplasmic/Endoplasmic Reticulum Ca2+ATPase (SERCA) pump or tunicamycin (an inhibitor of N-linked glycosylation). RNA was isolated from three independent experiments where H9c2 cells were treated with thapsigargin (Tg) or tunicamycin (Tm) for 24 hours. RNAs from Tg and Tm treated cells were checked for induction of key ER resident chaperone Grp78/BiP by RT-PCR. Grp78/BiP is a central regulator of ER homeostasis due to its multiple functional roles in protein folding, ER calcium binding, and controlling of the activation of transmembrane ER stress sensors. […] Total RNA was isolated from H9c2 cells treated with 1 μM Tg, 1 μg/ml Tm for 24 hr and the expression levels of the indicated genes were analysed by RT-PCR.
Next equal amounts of RNAs from each experiment were pooled and used for microarray analysis to minimize experimental variations. The experimental outline for the microarray analysis is illustrated in FIG. 2. The chips were spotted with 350 mature microRNAs of Rat as per Sanger miRBase database (Release 11.0). Each microRNA was spotted on the array nine times and for each RNA sample two chips were used. There were 16 sets of control probes on each array. There were greater than 10 positive controls (spike-in controls & 5S). There were greater than 10 negative controls (mismatch control). A 20-mer control RNA is spiked into each sample followed by labeling and hybridization. The control RNA had been computationally and experimentally verified not to cross-hybridize with the probes of any known microRNA transcript. The background-subtracted signals were used for statistical tests and clustering analysis.
(§2) Control, Untreated; Tg, thapsigargin (1 μM) for 24 hours, Tm, tunicamycin (1 μg/ml) for 24 hours. mir-7a, mir-351 and mir-322 are shown in bold face.

H9c2 cardiomyocytes [2] = assay: real-time RT-PCR confirmation of microRNA expression during ER stress; type: cell-based, Rat; settings: Tg 1 μM or Tm 1 μg/ml, 24 hours; for mir-7a expression, Real-time PCR (set I) / mir-18a expression, Real-time PCR (set I) / mir-20a expression, Real-time PCR (set I) / mir-24 expression, Real-time PCR (set I) / mir-25 expression, Real-time PCR (set I) / mir-93 expression, Real-time PCR (set I) / mir-98 expression, Real-time PCR (set I) / mir-103 expression, Real-time PCR (set I) / mir-106b expression, Real-time PCR (set I) / mir-107 expression, Real-time PCR (set I) / mir-133a expression, Real-time PCR (set I) / mir-133b expression, Real-time PCR (set I) / mir-206 expression, Real-time PCR (set I) / mir-322 expression, Real-time PCR (set I) / mir-351 expression, Real-time PCR (set I): untreated control = 1.000, set I; for mir-7a expression, Real-time PCR (set II) / mir-18a expression, Real-time PCR (set II) / mir-20a expression, Real-time PCR (set II) / mir-24 expression, Real-time PCR (set II) / mir-25 expression, Real-time PCR (set II) / mir-93 expression, Real-time PCR (set II) / mir-98 expression, Real-time PCR (set II) / mir-103 expression, Real-time PCR (set II) / mir-106b expression, Real-time PCR (set II) / mir-107 expression, Real-time PCR (set II) / mir-133a expression, Real-time PCR (set II) / mir-133b expression, Real-time PCR (set II) / mir-206 expression, Real-time PCR (set II) / mir-322 expression, Real-time PCR (set II) / mir-351 expression, Real-time PCR (set II): untreated control = 1.000, set II
Description: Expression of muscle specific microRNAs; mir-206, mir-133a and mir-133b and several members of mir-17-92 oncogenic cluster were repressed during conditions of ER stress. Based on their differential expression profile during ER stress and their hitherto unexplored role in cardiovascular biology mir-7a, mir-351 and mir-322 were identified as primary microRNA targets in conditions of ER stress. In addition, the invention has been extended to the human ortholog, miR-125, of rat miR-351. Similarly, the invention extends to the human ortholog, miR-424, of rat miR-322. […], and hsa-miR-424 & rno-miR-322 are microRNAs having similar seed sequences in humans and rats respectively.
as §2

H9c2 cells = assay: RT-PCR for induction of Grp78/BiP; type: cell-based; settings: 1 μM Tg, 1 μg/ml Tm for 24 hr, three independent experiments
Protocol: as §1

C/C=C(/C)C(=O)O[C@H]1C(C)=C2[C@H]([C@@H]1OC(=O)CCCCCCC)[C@@](C)(OC(C)=O)C[C@H](OC(=O)CCC)[C@@]1(O)[C@H]2OC(=O)[C@@]1(C)O [Tg, thapsigargin]
mir-7a expression, Microarray Analysis (H9c2 cardiomyocytes [1]): 1.341 | mir-18a expression, Microarray Analysis (H9c2 cardiomyocytes [1]): 0.426 | mir-20a expression, Microarray Analysis (H9c2 cardiomyocytes [1]): 0.770 | mir-24 expression, Microarray Analysis (H9c2 cardiomyocytes [1]): 0.664 | mir-25 expression, Microarray Analysis (H9c2 cardiomyocytes [1]): 0.633 | mir-93 expression, Microarray Analysis (H9c2 cardiomyocytes [1]): 0.583 | mir-98 expression, Microarray Analysis (H9c2 cardiomyocytes [1]): 3.822 | mir-103 expression, Microarray Analysis (H9c2 cardiomyocytes [1]): 0.654 | mir-106b expression, Microarray Analysis (H9c2 cardiomyocytes [1]): 0.638 | mir-107 expression, Microarray Analysis (H9c2 cardiomyocytes [1]): 0.682 | mir-133a expression, Microarray Analysis (H9c2 cardiomyocytes [1]): 0.595 | mir-133b expression, Microarray Analysis (H9c2 cardiomyocytes [1]): 0.565 | mir-206 expression, Microarray Analysis (H9c2 cardiomyocytes [1]): 0.683 | mir-322 expression, Microarray Analysis (H9c2 cardiomyocytes [1]): 0.094 | mir-351 expression, Microarray Analysis (H9c2 cardiomyocytes [1]): 0.141 | mir-7a expression, Real-time PCR (set I) (H9c2 cardiomyocytes [2]): 1.540 | mir-18a expression, Real-time PCR (set I) (H9c2 cardiomyocytes [2]): 0.720 | mir-20a expression, Real-time PCR (set I) (H9c2 cardiomyocytes [2]): 0.930 | mir-24 expression, Real-time PCR (set I) (H9c2 cardiomyocytes [2]): 0.810 | mir-25 expression, Real-time PCR (set I) (H9c2 cardiomyocytes [2]): 0.790 | mir-93 expression, Real-time PCR (set I) (H9c2 cardiomyocytes [2]): 0.660 | mir-98 expression, Real-time PCR (set I) (H9c2 cardiomyocytes [2]): 1.470 | mir-103 expression, Real-time PCR (set I) (H9c2 cardiomyocytes [2]): 0.860 | mir-106b expression, Real-time PCR (set I) (H9c2 cardiomyocytes [2]): 0.820 | mir-107 expression, Real-time PCR (set I) (H9c2 cardiomyocytes [2]): 0.580 | mir-133a expression, Real-time PCR (set I) (H9c2 cardiomyocytes [2]): 0.720 | mir-133b expression, Real-time PCR (set I) (H9c2 cardiomyocytes [2]): 0.470 | mir-206 expression, Real-time PCR (set I) (H9c2 cardiomyocytes [2]): 0.540 | mir-322 expression, Real-time PCR (set I) (H9c2 cardiomyocytes [2]): 0.830 | mir-351 expression, Real-time PCR (set I) (H9c2 cardiomyocytes [2]): 0.210 | mir-7a expression, Real-time PCR (set II) (H9c2 cardiomyocytes [2]): 3.800 | mir-18a expression, Real-time PCR (set II) (H9c2 cardiomyocytes [2]): 0.700 | mir-20a expression, Real-time PCR (set II) (H9c2 cardiomyocytes [2]): 0.620 | mir-24 expression, Real-time PCR (set II) (H9c2 cardiomyocytes [2]): 0.870 | mir-25 expression, Real-time PCR (set II) (H9c2 cardiomyocytes [2]): 0.799 | mir-93 expression, Real-time PCR (set II) (H9c2 cardiomyocytes [2]): 0.530 | mir-98 expression, Real-time PCR (set II) (H9c2 cardiomyocytes [2]): 0.850 | mir-103 expression, Real-time PCR (set II) (H9c2 cardiomyocytes [2]): 0.590 | mir-106b expression, Real-time PCR (set II) (H9c2 cardiomyocytes [2]): 0.800 | mir-107 expression, Real-time PCR (set II) (H9c2 cardiomyocytes [2]): 0.800 | mir-133a expression, Real-time PCR (set II) (H9c2 cardiomyocytes [2]): 1.140 | mir-133b expression, Real-time PCR (set II) (H9c2 cardiomyocytes [2]): 0.680 | mir-206 expression, Real-time PCR (set II) (H9c2 cardiomyocytes [2]): 0.820 | mir-322 expression, Real-time PCR (set II) (H9c2 cardiomyocytes [2]): 0.690 | mir-351 expression, Real-time PCR (set II) (H9c2 cardiomyocytes [2]): 0.210 | induction of ER resident chaperone Grp78/BiP by RT-PCR (H9c2 cells): induction of Grp78/BiP in all three experiments

tunicamycin [Tm]
mir-7a expression, Microarray Analysis (H9c2 cardiomyocytes [1]): 2.458 | mir-18a expression, Microarray Analysis (H9c2 cardiomyocytes [1]): 0.550 | mir-20a expression, Microarray Analysis (H9c2 cardiomyocytes [1]): 0.791 | mir-24 expression, Microarray Analysis (H9c2 cardiomyocytes [1]): 0.672 | mir-25 expression, Microarray Analysis (H9c2 cardiomyocytes [1]): 0.771 | mir-93 expression, Microarray Analysis (H9c2 cardiomyocytes [1]): 0.524 | mir-98 expression, Microarray Analysis (H9c2 cardiomyocytes [1]): 4.921 | mir-103 expression, Microarray Analysis (H9c2 cardiomyocytes [1]): 0.571 | mir-106b expression, Microarray Analysis (H9c2 cardiomyocytes [1]): 0.672 | mir-107 expression, Microarray Analysis (H9c2 cardiomyocytes [1]): 0.601 | mir-133a expression, Microarray Analysis (H9c2 cardiomyocytes [1]): 0.690 | mir-133b expression, Microarray Analysis (H9c2 cardiomyocytes [1]): 0.641 | mir-206 expression, Microarray Analysis (H9c2 cardiomyocytes [1]): 0.607 | mir-322 expression, Microarray Analysis (H9c2 cardiomyocytes [1]): 0.113 | mir-351 expression, Microarray Analysis (H9c2 cardiomyocytes [1]): 0.179 | mir-7a expression, Real-time PCR (set I) (H9c2 cardiomyocytes [2]): 1.140 | mir-18a expression, Real-time PCR (set I) (H9c2 cardiomyocytes [2]): 1.090 | mir-20a expression, Real-time PCR (set I) (H9c2 cardiomyocytes [2]): 1.340 | mir-24 expression, Real-time PCR (set I) (H9c2 cardiomyocytes [2]): 0.930 | mir-25 expression, Real-time PCR (set I) (H9c2 cardiomyocytes [2]): 0.906 | mir-93 expression, Real-time PCR (set I) (H9c2 cardiomyocytes [2]): 0.800 | mir-98 expression, Real-time PCR (set I) (H9c2 cardiomyocytes [2]): 1.480 | mir-103 expression, Real-time PCR (set I) (H9c2 cardiomyocytes [2]): 0.960 | mir-106b expression, Real-time PCR (set I) (H9c2 cardiomyocytes [2]): 1.060 | mir-107 expression, Real-time PCR (set I) (H9c2 cardiomyocytes [2]): 0.590 | mir-133a expression, Real-time PCR (set I) (H9c2 cardiomyocytes [2]): 0.750 | mir-133b expression, Real-time PCR (set I) (H9c2 cardiomyocytes [2]): 0.480 | mir-206 expression, Real-time PCR (set I) (H9c2 cardiomyocytes [2]): 0.570 | mir-322 expression, Real-time PCR (set I) (H9c2 cardiomyocytes [2]): 0.840 | mir-351 expression, Real-time PCR (set I) (H9c2 cardiomyocytes [2]): 0.290 | mir-7a expression, Real-time PCR (set II) (H9c2 cardiomyocytes [2]): 1.650 | mir-18a expression, Real-time PCR (set II) (H9c2 cardiomyocytes [2]): 0.640 | mir-20a expression, Real-time PCR (set II) (H9c2 cardiomyocytes [2]): 0.650 | mir-24 expression, Real-time PCR (set II) (H9c2 cardiomyocytes [2]): 0.760 | mir-25 expression, Real-time PCR (set II) (H9c2 cardiomyocytes [2]): 0.760 | mir-93 expression, Real-time PCR (set II) (H9c2 cardiomyocytes [2]): 0.550 | mir-98 expression, Real-time PCR (set II) (H9c2 cardiomyocytes [2]): 0.750 | mir-103 expression, Real-time PCR (set II) (H9c2 cardiomyocytes [2]): 0.500 | mir-106b expression, Real-time PCR (set II) (H9c2 cardiomyocytes [2]): 0.737 | mir-107 expression, Real-time PCR (set II) (H9c2 cardiomyocytes [2]): 0.630 | mir-133a expression, Real-time PCR (set II) (H9c2 cardiomyocytes [2]): 0.730 | mir-133b expression, Real-time PCR (set II) (H9c2 cardiomyocytes [2]): 0.510 | mir-206 expression, Real-time PCR (set II) (H9c2 cardiomyocytes [2]): 0.604 | mir-322 expression, Real-time PCR (set II) (H9c2 cardiomyocytes [2]): 0.610 | mir-351 expression, Real-time PCR (set II) (H9c2 cardiomyocytes [2]): 0.230 | induction of ER resident chaperone Grp78/BiP by RT-PCR (H9c2 cells): induction of Grp78/BiP in all three experiments
